Results on two compounds are retold here after PMC4912077 (PLoS ONE, 2016).

Where only a bound is given, the exact number is not on record here.

The test system of assay [1] is Sprague–Dawley rats. Description: Acoustic startle response (ASR) magnitude in rats. Type of assay: in vivo, rat. Here is the method: Male Sprague–Dawley rats from Harlan Industries (Indianapolis, IN, USA; initial weight 250–275 g) were housed in pairs under a 12-h reverse light/dark cycle (lights off at 0700 h). Use of a reversed light/dark cycle allows behavioral testing to be conducted during the awake phase of the light/dark cycle. Food and water were available ad libitum. Animals were acclimatized for approximately 1 wk after arrival prior to behavioral testing and maintained in Association for Assessment and Accreditation of Laboratory Animal Care (AAALAC)-approved facilities that meet all federal and state guidelines. Procedures were approved by the University of California San Diego institutional animal care and use committee. […]
Eight startle chambers (SR-LAB system, San Diego Instruments, San Diego, CA, USA) were used to measure startle reactivity in rats. […] The peak and average amplitudes of the startle response were detected by a piezoelectric accelerometer. At the onset of the startling stimulus, 100 1-ms readings were recorded, and the average amplitude was used to determine the magnitude of the startle response (measured in arbitrary units).
Acoustic startle test sessions consisted of startle trials (pulse-alone) and prepulse trials (prepulse + pulse). […] During each inter-trial interval, the movements of the animals were recorded once to measure response when no stimulus was present (data not shown). […]

Assay [2] has as its target PCP site within the NMDAR channel. Put plainly: NMDAR binding, [3H]-MK-801 displacement in rat forebrain homogenate.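 On all read-outs here: IC50 by nonlinear regression of percent specific binding versus log concentration, Ki from IC50 via Cheng-Prusoff, raw counts in CPM, duplicates repeated at least three times.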 Conditions: for Ki: read-out: Ki ± SEM, [3H]-(+)-MK-801, rat forebrain, Cheng-Prusoff.
Protocol: (§3) The reaction was terminated by vacuum filtration using a 24 well cell harvester (Brandel, Gaithersburg, MD) over presoaked GF/B glass fiber filters (Brandel, Gaithersburg, MD). Filters were washed with room temperature assay buffer (3 x 5 mL). […] IC50 values were determined in Graphpad Prism 5.0 using non-linear regression with log-concentration plotted against percent specific binding. […] Ki values were calculated using the equation of Cheng and Prusoff [24]. […] Protein concentration was determined via the Bradford method using Coomassie protein assay reagent (Sigma, USA) [25] with rat albumin (Sigma, USA) as standard. Experiments were performed in duplicate and repeated a minimum of three times.
The target in assay [3] is T1, DAT (Homo sapiens, UniProt Q01959). Description: NIMH PDSP radioligand binding, DAT. As to the method:
(§1) Radioligands and concentrations used for additional 45 CNS receptor binding assays are listed as supporting information (S1 Table). This work was performed by the National Institute of Mental Health Psychoactive Drug Screening Program (NIMH PDSP) as described previously.[26] Briefly target compounds were dissolved in DMSO and subjected to a primary screen at 10,000 nM concentration. […] Additional experimental details are available in the NIMH PDSP assay protocol book.

The test system of assay [4] is PCP site within the NMDAR channel.
Protocol: as §3
Assay [5] has as its target M5 (Homo sapiens, UniProt P08912). Description: NIMH PDSP radioligand binding, M5.
The target of assay [6] is NET (Homo sapiens, UniProt P23975). Description: Monoamine reuptake inhibition assay, NET in HEK293 cells. It is filed as cell-based. Also noted: expressed in transfected cells; host or cells: HEK293. The settings on record: for Hill slope NET reuptake inhibition: HEK293 cells. As to the method:
(§2) Monoamine reuptake inhibition assays were performed via the NIMH PDSP as previously described.[28] In brief, the neurotransmitter transporter uptake assay kit (R8174) (Molecular Devices) was used. Human monoamine transporters (DAT, NET and SERT) were stably expressed in HEK293 cells. Assay buffer consisted of 20 mM HEPES, 1x HBSS at pH 7.4. Cells were plated in Pol-L-Lys (PLL) coated 384-well black clear bottom cell culture plates with a density of 15,000 cells/well. Cells were incubated for at least 6 h prior to assay. Media was removed and replaced with 20 μL assay buffer and 5 μL of drug or positive control (cocaine or nisoxetine) as a 5X stock. Cells were incubated for 30 min at 37°C. 25 μL of dye solution was then added and following an additional 30 min incubation (at 37°C) fluorescence intensity was measured using a FlexStation II (bottom read mode, excitation wavelength = […], emission = 520 nM with a cutoff of 510 nM). […] Additional details are available in the NIMH PDSP assay protocol book.

The target of assay [7] is KOR (Homo sapiens, UniProt P41145). Description: NIMH PDSP radioligand binding, KOR. As to the method:
as §1

In assay [8] the target is T1, DAT. Description: Monoamine reuptake inhibition assay, DAT in HEK293 cells. Type of assay: cell-based. Also noted: expressed in transfected cells; host or cells: HEK293. The settings on record: for Hill slope DAT reuptake inhibition: HEK293 cells. As to the method:
as §2

Assay [9] concerns the target T2, Sigma 2 (Rattus norvegicus, UniProt Q5U3Y7).
T2 sequence (Q5U3Y7 1-176): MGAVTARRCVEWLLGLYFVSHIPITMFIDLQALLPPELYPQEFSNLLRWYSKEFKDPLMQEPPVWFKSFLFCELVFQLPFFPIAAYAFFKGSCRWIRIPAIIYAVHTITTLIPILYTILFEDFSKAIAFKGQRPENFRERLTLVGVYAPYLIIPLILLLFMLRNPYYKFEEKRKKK
Put plainly: NIMH PDSP radioligand binding, Sigma 2. Here is the method:
as §1

Assay [10] addresses H1 (Homo sapiens, UniProt P35367). Put plainly: NIMH PDSP radioligand binding, H1. Here is the method:
as §1

Assay [11] has as its target T3, Human SERT (Homo sapiens, UniProt P31645).
T3 construct: expressed in transfected cells; host or cells: HEK293
Put plainly: Monoamine reuptake inhibition assay, SERT in HEK293 cells. Type of assay: cell-based. As to the method: as §2

T1 sequence (Q01959 whole entry): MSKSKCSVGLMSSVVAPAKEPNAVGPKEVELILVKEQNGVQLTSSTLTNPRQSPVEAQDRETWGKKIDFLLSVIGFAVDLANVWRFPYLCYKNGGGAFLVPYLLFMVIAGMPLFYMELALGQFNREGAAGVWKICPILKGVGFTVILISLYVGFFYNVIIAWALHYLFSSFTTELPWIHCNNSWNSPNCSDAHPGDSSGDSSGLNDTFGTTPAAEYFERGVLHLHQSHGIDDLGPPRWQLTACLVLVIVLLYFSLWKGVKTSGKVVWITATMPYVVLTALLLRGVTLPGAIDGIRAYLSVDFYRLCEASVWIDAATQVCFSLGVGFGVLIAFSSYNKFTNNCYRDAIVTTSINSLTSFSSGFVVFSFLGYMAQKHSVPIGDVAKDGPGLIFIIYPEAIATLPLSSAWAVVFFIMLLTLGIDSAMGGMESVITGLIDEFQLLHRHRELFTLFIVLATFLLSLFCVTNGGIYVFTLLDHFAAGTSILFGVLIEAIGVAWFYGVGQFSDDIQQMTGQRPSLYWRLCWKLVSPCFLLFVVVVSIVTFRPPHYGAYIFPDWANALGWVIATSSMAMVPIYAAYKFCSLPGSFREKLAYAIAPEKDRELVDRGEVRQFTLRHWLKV
Chain of NET (P23975 whole entry): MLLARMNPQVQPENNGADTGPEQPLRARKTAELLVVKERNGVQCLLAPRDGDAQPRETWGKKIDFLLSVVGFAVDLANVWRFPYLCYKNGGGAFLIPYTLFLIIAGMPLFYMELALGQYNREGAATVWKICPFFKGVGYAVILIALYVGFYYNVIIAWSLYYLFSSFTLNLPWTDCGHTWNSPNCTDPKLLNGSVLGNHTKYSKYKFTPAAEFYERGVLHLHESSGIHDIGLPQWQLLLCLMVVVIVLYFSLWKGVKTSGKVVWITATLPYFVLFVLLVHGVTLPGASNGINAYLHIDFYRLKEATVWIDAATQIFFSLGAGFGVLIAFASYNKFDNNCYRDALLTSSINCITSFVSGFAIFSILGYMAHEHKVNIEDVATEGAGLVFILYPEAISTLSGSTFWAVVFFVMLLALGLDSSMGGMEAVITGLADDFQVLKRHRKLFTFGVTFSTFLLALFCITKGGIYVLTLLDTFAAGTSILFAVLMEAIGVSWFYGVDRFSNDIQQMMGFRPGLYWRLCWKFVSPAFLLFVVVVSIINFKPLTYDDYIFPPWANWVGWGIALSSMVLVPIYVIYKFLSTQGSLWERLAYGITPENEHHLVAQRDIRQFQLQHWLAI
Chain of KOR (P41145 whole entry): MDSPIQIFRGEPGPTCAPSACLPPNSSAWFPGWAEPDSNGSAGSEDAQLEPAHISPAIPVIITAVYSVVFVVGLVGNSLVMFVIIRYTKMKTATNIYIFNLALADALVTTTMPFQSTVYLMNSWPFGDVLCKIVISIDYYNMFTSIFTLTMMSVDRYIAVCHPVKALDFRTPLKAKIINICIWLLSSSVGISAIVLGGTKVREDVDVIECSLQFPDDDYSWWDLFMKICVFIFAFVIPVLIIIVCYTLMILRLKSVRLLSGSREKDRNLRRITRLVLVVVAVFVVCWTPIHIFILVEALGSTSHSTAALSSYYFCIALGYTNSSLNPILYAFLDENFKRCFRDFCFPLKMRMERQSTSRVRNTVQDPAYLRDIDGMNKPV
Chain of M5 (P08912 whole entry): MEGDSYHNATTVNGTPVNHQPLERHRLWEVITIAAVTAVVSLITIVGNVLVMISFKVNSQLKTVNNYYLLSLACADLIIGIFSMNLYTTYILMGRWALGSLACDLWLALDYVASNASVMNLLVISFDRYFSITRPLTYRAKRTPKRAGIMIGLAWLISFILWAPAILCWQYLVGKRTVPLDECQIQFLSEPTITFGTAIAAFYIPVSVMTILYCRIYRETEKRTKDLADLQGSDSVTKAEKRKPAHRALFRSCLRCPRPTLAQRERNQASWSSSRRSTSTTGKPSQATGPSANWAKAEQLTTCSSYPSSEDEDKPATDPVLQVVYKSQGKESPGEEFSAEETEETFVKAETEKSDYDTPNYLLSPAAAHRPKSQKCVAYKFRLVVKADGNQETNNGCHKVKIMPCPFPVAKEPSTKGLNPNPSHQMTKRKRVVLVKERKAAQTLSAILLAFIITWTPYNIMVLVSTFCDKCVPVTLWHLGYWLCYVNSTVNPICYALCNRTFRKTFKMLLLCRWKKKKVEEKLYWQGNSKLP
Chain of H1 (P35367 whole entry): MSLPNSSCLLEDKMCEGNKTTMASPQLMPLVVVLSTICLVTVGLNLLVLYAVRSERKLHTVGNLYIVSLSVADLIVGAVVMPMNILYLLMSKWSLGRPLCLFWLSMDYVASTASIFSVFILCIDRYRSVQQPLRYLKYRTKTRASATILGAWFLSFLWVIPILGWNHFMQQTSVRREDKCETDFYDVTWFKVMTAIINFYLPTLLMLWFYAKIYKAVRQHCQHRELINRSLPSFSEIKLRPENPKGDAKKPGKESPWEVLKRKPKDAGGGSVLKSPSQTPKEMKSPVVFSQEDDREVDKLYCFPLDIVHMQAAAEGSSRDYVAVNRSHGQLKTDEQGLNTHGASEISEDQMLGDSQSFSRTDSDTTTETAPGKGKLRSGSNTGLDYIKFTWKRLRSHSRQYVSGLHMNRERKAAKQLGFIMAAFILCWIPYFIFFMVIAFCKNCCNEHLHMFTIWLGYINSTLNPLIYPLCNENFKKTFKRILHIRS
T3 sequence (P31645 whole entry): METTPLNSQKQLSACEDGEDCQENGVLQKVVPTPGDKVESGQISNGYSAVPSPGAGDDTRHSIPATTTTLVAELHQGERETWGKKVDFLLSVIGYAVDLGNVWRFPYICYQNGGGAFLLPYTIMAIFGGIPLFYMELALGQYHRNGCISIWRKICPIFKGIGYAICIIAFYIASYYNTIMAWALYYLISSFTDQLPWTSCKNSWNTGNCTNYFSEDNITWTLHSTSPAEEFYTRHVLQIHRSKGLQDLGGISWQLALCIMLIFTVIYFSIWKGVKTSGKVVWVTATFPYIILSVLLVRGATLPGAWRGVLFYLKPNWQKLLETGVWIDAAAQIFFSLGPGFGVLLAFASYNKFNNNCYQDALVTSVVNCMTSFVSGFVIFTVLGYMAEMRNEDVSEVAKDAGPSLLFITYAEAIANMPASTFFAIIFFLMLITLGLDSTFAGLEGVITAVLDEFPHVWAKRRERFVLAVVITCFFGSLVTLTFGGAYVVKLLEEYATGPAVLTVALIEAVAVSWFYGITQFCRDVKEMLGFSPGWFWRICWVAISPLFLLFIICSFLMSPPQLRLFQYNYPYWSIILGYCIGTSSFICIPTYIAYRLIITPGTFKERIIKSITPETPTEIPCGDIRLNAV

With `COc1ccccc1C(Cc1ccccc1)N1CCCCC1` (stereo not drawn) [2-MXP, 2-methoxydiphenidine], the “acoustic startle response (ASR) magnitude” value in assay [1] (20 mg/kg s.c., vehicle 175.9 ± 29.2) is reported as 78.8 ± 11.9 arbitrary units. Further, the Ki came to 36 ± 3.7 nM in assay [2]; 2910 nM in assay [3]; 1530 nM in [5]; 1690 nM in assay [7]; 508 nM in assay [9]; 533 nM in assay [10]. Further, the IC50 in assay [4] is 56.5 ± 5.8 nM; in assay [6], 35200 nM; in assay [8] it was 30000 nM; in assay [11], greater than 10000 nM. For the same compound, the “Hill slope NET reuptake inhibition” value in assay [6] stood at 2.04. Besides, the “Hill slope DAT reuptake inhibition” value in [8] is 0.81.
For `c1ccc(CC(c2ccccc2)N2CCCCC2)cc1` (stereo not drawn) [DPH, diphenidine], the “effect on magnitude of the ASR” value in assay [1] (1.25–30 mg/kg s.c., both experiments) is “did not alter the magnitude of the ASR”. For the same compound, in assay [2] (higher affinity), the “NMDAR affinity relative to ketamine” value is listed as ~ 18 fold. The Ki was 18.2 ± 2.2 nM in assay [2]; 317 nM in [3]; 1650 nM in assay [5]; 3900 nM in assay [7]; 193 nM in assay [9]; 1340 nM in assay [10]. For the same compound, the IC50 in assay [4] was 28.6 ± 3.5 nM; in assay [6], 9250 nM; in [8], 1990 nM; in assay [11], greater than 10000 nM. In addition, in assay [6], the “Hill slope NET reuptake inhibition” value is reported as 0.97. For the same compound, the “Hill slope DAT reuptake inhibition” value in [8] was found to be 0.91.

By Ki is commonly meant a measure of affinity in units of concentration, obtained from inhibition or displacement. For orientation: IC50 means the concentration at which inhibition is half-maximal.
